One assay deals with liver. Description: Liver regeneration after partial hepatectomy. The assay is classed as in vivo, mice.
Assay [1] deals with 15-PGDH-luciferase fusion reporter in V9m, LS174T and V503 cells. Briefly: 15-PGDH-luciferase fusion gene reporter induction, stated for the three cell line backgrounds together. As to conditions: V9m, LS174T, V503; FIG. 1. The class given is cell-based.
A further assay relates to bone marrow. Description: Bone marrow analysis of treated C57BL/6J mice. The assay is classed as in vivo. To be noted: IP 5 mg/kg or 20 mg/kg. The source says: FIGS. […] Experimental conditions are noted on the figure.

Take `CCCC[S+]([O-])c1sc2nc(-c3cccs3)cc(-c3ccccc3)c2c1N` (centres unmarked) [SW033291, 2-(butylsulfinyl)-4-phenyl-6-(thiophen-2-yl)thieno[2,3-b]pyridin-3-amine]: the “serum ALT levels” value with liver (5 mg/kg IP bid, one mouse versus one control mouse) is listed as “ALT values are lower”. Besides, in the assay with liver (days 3 and 4), the “hepatic mitosis versus controls” value was “significantly increased hepatic mitosis”. Also, in the assay on liver (post-operative day 2), the “BrdU positive (S-phase) cells in liver” value is “clear increase in numbers of BrdU positive cells”. Moreover, in assay [1], the “luciferase activity of cells expressing 15-PGDH luciferase fusion construct” value was “increase luciferase activity”. Moreover, the “percent of SKL cells” value in the assay with bone marrow was “unchanged”.
